From patent US11840686B2, “Modulation of prekallikrein (PKK) expression” (Ionis Pharmaceuticals, Inc., priority 2013, dated 2023)
pIC50: −log10 of the molar value. Values joined by “and” are separate entries in the source; they are usually repeats but may differ in a detail not shown here. Equal values may be shown once.

Tests used:
human PKK mRNA [1] = experiment: Antisense inhibition of human PKK mRNA in HepaRG cells, 1,000 nM, MOE/deoxy/cEt oligonucleotides (Example 3); format: cell-based; conditions: HepaRG cells, 1,000 nM, electroporation, 24 hours
Method in brief: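 HepaRG cells at 20,000 per well electroporated with 1,000 nM 16-mer MOE/cEt/deoxy gapmers (phosphorothioate, 5-methylcytosine). After about 24 h, PKK mRNA measured by qRT-PCR with primer probe set RTS3454, normalized to RIBOGREEN total RNA. Reported as percent inhibition versus untreated cells.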

human PKK mRNA [2] = experiment: Human PKK mRNA in liver of human KLKB1 transgenic mice (Example 7); format: in vivo
Method in brief: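 Transgenic mice carrying a 37,390 bp human KLKB1 fragment dosed subcutaneously twice weekly for 3 weeks at 2.5, 5.0, 10 or 20 mg/kg/week; PBS controls. Liver harvested 48 h after the last dose. Human PKK mRNA measured by real-time PCR and expressed as % inhibition versus PBS.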

PKK protein [3] = experiment: Plasma PKK protein levels in human KLKB1 transgenic mice (Example 7); format: in vivo; conditions: transgenic mice
Method in brief: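 Human KLKB1 transgenic mice dosed subcutaneously twice weekly for 3 weeks with antisense oligonucleotides at 2.5, 5.0, 10 or 20 mg/kg/week. Plasma collected 48 hours after the final dose; PKK protein expressed as percent inhibition relative to PBS-treated controls.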

PKK mRNA = PKK mRNA in cynomolgus monkey liver (Example 8); format: in vivo; conditions: primates, Example 8
Method in brief: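 Cynomolgus monkeys were dosed with human antisense oligonucleotides cross-reactive with the rhesus sequence. Liver RNA taken on day 87 or 88, 48 h after the last dose, was assayed by real-time PCR (primer probe set RTS3455) and normalized to cyclophilin. Values are percent PKK mRNA inhibition versus PBS control.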

PKK protein [4] = experiment: PKK protein in cynomolgus monkey plasma by ELISA (Example 8); format: in vivo; conditions: 40 mg/kg sc
Procedure: Approximately 0.9 mL of blood was collected each time from all available animals at pre-dose, day 17, day 31, day 45, day 59, and day 73, and placed in tubes containing 3.2% sodium citrate. The tubes were centrifuged (3000 rpm for 10 min at room temperature) to obtain plasma. PKK protein levels were measured in the plasma by ELISA. The results are presented in Table 52, expressed as percentage inhibition compared to the PBS control levels.

[5] = Tolerability / clinical observation of cynomolgus monkeys (Example 8); format: in vivo, cynomolgus monkey; conditions: primates, Example 8
Procedure: Cynomolgus monkeys were treated with ISIS antisense oligonucleotides selected from studies described above. Antisense oligonucleotide efficacy and tolerability were evaluated. The human antisense oligonucleotides tested are cross-reactive with the rhesus genomic sequence (GENBANK Accession No. NW_001118167.1 truncated from nucleotides 2358000 to 2391000 and designated herein as SEQ ID NO: 18).
During the study period, the monkeys were observed a minimum of once daily for signs of illness or distress. Any animal experiencing more than momentary or slight pain or distress due to the treatment, injury or illness was promptly reported to the responsible veterinarian and the Study Director. Any animal in poor health or in a possible moribund condition was identified for further monitoring and possible euthanasia. […] The protocols described in the Example were approved by the Institutional Animal Care and Use Committee (IACUC).

[6] = Liver function markers in cynomolgus monkeys (Example 8); conditions: cynomolgus monkey plasma, 40 mg/kg sc
[7] = Hematological parameters in cynomolgus monkeys (Example 8); conditions: cynomolgus monkey, 40 mg/kg sc, day 87 or day 88
[8] = Urine protein/creatinine ratio in cynomolgus monkeys (Example 8); conditions: cynomolgus monkey, 40 mg/kg sc
Procedure: (§1) Prior to the study, the monkeys were kept in quarantine for a 30-day period, during which the animals were observed daily for general health. The monkeys were 2-4 years old and weighed between 2 and 4 kg. Ten groups of four randomly assigned male cynomolgus monkeys each were injected subcutaneously with ISIS oligonucleotide or PBS. PBS solution or ISIS oligonucleotides at a dose of 40 mg/kg were administered initially with a loading regimen consisting of four doses on the first week of the study (days 1, 3, 5, and 7), followed by a maintenance regimen consisting of once weekly administration starting on Day 14 (weeks 2 to 13). Subcutaneous injections were performed in clock-wise rotations at 4 sites on the back; one site per dose. The injection sites were delineated by tattoo, while sedated using ketamine, and were separated by a minimum of 3 cm.
Kidney function was also assessed by urinalysis. Fresh urine from all animals was collected using a clean cage pan on wet ice. Food was removed overnight the day before fresh urine collection was done but water was supplied. The total protein and creatinine levels were measured using a Toshiba 120FR NEO automated chemistry analyzer (Toshiba Co., Japan) and the protein to creatinine ratio was calculated.

[9] = Kidney function: plasma BUN and creatinine in cynomolgus monkeys (Example 8); conditions: 40 mg/kg s.c.
[10] = C-reactive protein and complement C3 levels in cynomolgus monkeys (Example 8); conditions: cynomolgus monkey plasma, 40 mg/kg sc
Procedure: as §1
To evaluate any inflammatory effect of ISIS oligonucleotides in cynomolgus monkeys, the monkeys were fasted overnight. Approximately, 1.5 mL of blood samples were collected from all the study groups. Blood was collected in tubes without anticoagulant for serum separation. The tubes were kept at room temperature for a minimum of 90 min and then centrifuged at 3,000 rpm for 10 min. C-reactive protein (CRP), which is synthesized in the liver and which serves as a marker of inflammation, was measured using a Toshiba 120FR NEO chemistry analyzer (Toshiba Co., Japan). Complement C3 was also measured similarly, and the data is presented as a percentage of baseline values.

human PKK mRNA [11] = experiment: Antisense inhibition of human PKK mRNA in HepaRG cells, 5,000 nM (Example 2); format: cell-based; conditions: HepaRG cells, 5,000 nM, electroporation, 24 hours
Method in brief: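 HepaRG cells, 20,000 per well, were electroporated with 5,000 nM MOE gapmer (phosphorothioate, 5-methylcytosine) and incubated about 24 hours. PKK mRNA was quantified by qRT-PCR with primer probe set RTS3454, normalized to RIBOGREEN total RNA, and expressed as percent inhibition versus untreated controls.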

human PKK mRNA [12] = experiment: Dose-dependent antisense inhibition of human PKK in HepaRG cells, 0.19-5.00 uM (Example 5); format: cell-based; conditions: 4 point dose response curve (0.19-5.0 μM), HepaRG cells, electroporation
Method in brief: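 HepaRG cells (20,000/well) were electroporated with antisense oligonucleotide at 0.19, 0.56, 1.67 and 5.00 μM and treated for about 16 hours. PKK mRNA was quantified by qRT-PCR with primer probe set RTS3454, normalised to RIBOGREEN total RNA, and IC50 was derived per oligonucleotide.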

Substance: mCes Ges Aks Tds Ads Tds mCds Ads Tds Gds Ads Tds Tds mCks mCks mCe [ISIS 548048]
- mRNA inhibition (human PKK mRNA [1]): 84%
- human PKK mRNA inhibition (human PKK mRNA [2]; transgenic mice, 2.5 mg/kg/week s.c. twice a week for 3 weeks): 7%
- human PKK mRNA inhibition (human PKK mRNA [2]; transgenic mice, 5.0 mg/kg/week s.c. twice a week for 3 weeks): 77%
- human PKK mRNA inhibition (human PKK mRNA [2]; transgenic mice, 10 mg/kg/week s.c. twice a week for 3 weeks): 72%
- human PKK mRNA inhibition (human PKK mRNA [2]; transgenic mice, 20 mg/kg/week s.c. twice a week for 3 weeks): 80%
- human PKK protein inhibition (PKK protein [3]; 2.5 mg/kg/week s.c. twice a week for 3 weeks): 23%
- human PKK protein inhibition (PKK protein [3]; 5.0 mg/kg/week s.c. twice a week for 3 weeks): 70%
- human PKK protein inhibition (PKK protein [3]; 10 mg/kg/week s.c. twice a week for 3 weeks): 89%
- human PKK protein inhibition (PKK protein [3]; 20 mg/kg/week s.c. twice a week for 3 weeks): 98%
- inhibiting PKK mRNA and protein expression in primates (PKK mRNA): effective for inhibiting PKK mRNA and protein expression
- PKK protein level reduction (%) in plasma relative to control levels (PKK protein [4]; Day 17): 90%
- PKK protein level reduction (%) in plasma relative to control levels (PKK protein [4]; Day 31): 93%
- PKK protein level reduction (%) in plasma relative to control levels (PKK protein [4]; Day 45): 95%
- PKK protein level reduction (%) in plasma relative to control levels (PKK protein [4]; Day 59): 95%
- PKK protein level reduction (%) in plasma relative to control levels (PKK protein [4]; Day 73): 95%
- tolerability in primates [5]: tolerable in primates
- ALT [6]: 47 IU/L
- AST [6]: 44 IU/L
- Albumin [6]: 4.2 g/dL
- HCT [7]: 44%
- Hemoglobin [7]: 13.4 g/dL
- Platelets [7]: 393000 µL⁻¹
- RBC [7]: 5.9e+06 µL⁻¹
- WBC [7]: 11000 µL⁻¹
- Urine protein/creatinine ratio [8]: 0.03
- Plasma BUN [9]: 21.9 mg/dL
- Plasma Creatinine [9]: 0.9 mg/dL
- C3 (% of baseline) [10]: 69 % of baseline
- CRP [10]: 0.2 mg/dL

Substance: mCes mCes mCes mCes mCes Tds Tds mCds Tds Tds Tds Ads Tds Ads Gds mCes mCes Aes Ges mCe [ISIS 546343]
- inhibition of human PKK mRNA (human PKK mRNA [11]): 97% and 91%
- pIC50 (human PKK mRNA [12]): 6.40
- human PKK mRNA inhibition (human PKK mRNA [2]; transgenic mice, 2.5, 5.0, 10 or 20 mg/kg/week s.c., three values for four doses, dose not assignable): 46% and 66% and 86%
- inhibiting PKK mRNA and protein expression in primates (PKK mRNA): effective for inhibiting PKK mRNA and protein expression
- PKK protein level reduction (%) in plasma relative to control levels (PKK protein [4]; Day 17): 56%
- PKK protein level reduction (%) in plasma relative to control levels (PKK protein [4]; Day 31): 74%
- PKK protein level reduction (%) in plasma relative to control levels (PKK protein [4]; Day 45): 69%
- PKK protein level reduction (%) in plasma relative to control levels (PKK protein [4]; Day 59): 70%
- PKK protein level reduction (%) in plasma relative to control levels (PKK protein [4]; Day 73): 70%
- tolerability in primates [5]: tolerable in primates
- ALT [6]: 76 IU/L
- AST [6]: 49 IU/L
- Albumin [6]: 4.3 g/dL
- HCT [7]: 42%
- Hemoglobin [7]: 12.6 g/dL
- Platelets [7]: 373000 µL⁻¹
- RBC [7]: 5.5e+06 µL⁻¹
- WBC [7]: 14000 µL⁻¹
- Urine protein/creatinine ratio [8]: 0.01
- Plasma BUN [9]: 26.2 mg/dL
- Plasma Creatinine [9]: 1.0 mg/dL
- C3 (% of baseline) [10]: 60 % of baseline
- CRP [10]: 0.2 mg/dL
